Laboratory results taken from US9102613B2, “Method for producing sorbic anhydride and also use thereof as a preservative in foods” (LANXESS DEUTSCHLAND GMBH, priority 2010, dated 2015).

Assay: preservative action in foods (e.g. fruit drinks)

SMILES | preservation action relative to sorbic acid or sorbate (compared with sorbic acid or sorbate, preservative for foods) | preservative action relative to potassium sorbate (compared with e.g. potassium sorbate, preservation of foods)
C/C=C/C=C/C(=O)OC(=O)/C=C/C=C/C [all-E-sorbic anhydride] | approximately five times higher | –
C/C=C/C=C/C(=O)OC(=O)/C=C/C=C/C [sorbic anhydride] | – | about 5 times
